Measurements published in ChEMBL document CHEMBL3045802, “Synthesis and in vitro antitumor activity of new quinoline, pyrimido[4,5-b]quinoline, [1,2,3]triazino[4,5-b]quinoline, and [1,2,4]triazolo[2,3:3,4]pyrimido[6,5-b]quinoline analogs” (2013).

Tests used:
Format in all cases: functional
[1] = tested on: SK-MEL-2; test: Cytotoxicity against Homo sapiens (human) SK-MEL-2 cells assessed as growth inhibition at 10 uM after 48 hr by coulter counter analysis; conditions: SK-MEL-2, 48 h, read-out: GI
[2] = tested on: SNB-75; test: Cytotoxicity against Homo sapiens (human) SNB75 cells assessed as growth inhibition at 10 uM after 48 hr by coulter counter analysis; conditions: SNB-75, 48 h, read-out: GI
[3] = tested on: SNB-19; test: Cytotoxicity against Homo sapiens (human) SNB19 cells assessed as growth inhibition at 10 uM after 48 hr by coulter counter analysis; conditions: SNB-19, 48 h, read-out: GI
[4] = tested on: SF-539; test: Cytotoxicity against Homo sapiens (human) SF539 cells assessed as growth inhibition at 10 uM after 48 hr by coulter counter analysis; conditions: SF-539, 48 h, read-out: GI
[5] = tested on: OVCAR-3; test: Cytotoxicity against Homo sapiens (human) OVCAR3 cells assessed as growth inhibition at 10 uM after 48 hr by coulter counter analysis; conditions: OVCAR-3, 48 h, read-out: GI
[6] = tested on: IGROV-1; test: Cytotoxicity against Homo sapiens (human) IGROV1 cells assessed as growth inhibition at 10 uM after 48 hr by coulter counter analysis; conditions: IGROV-1, 48 h, read-out: GI
[7] = tested on: UACC-257; test: Cytotoxicity against Homo sapiens (human) UACC257 cells assessed as growth inhibition at 10 uM after 48 hr by coulter counter analysis; conditions: UACC-257, 48 h, read-out: GI
[8] = tested on: SK-MEL-5; test: Cytotoxicity against Homo sapiens (human) SK-MEL-5 cells assessed as growth inhibition at 10 uM after 48 hr by coulter counter analysis; conditions: SK-MEL-5, 48 h, read-out: GI
[9] = tested on: MDA-MB-468; test: Cytotoxicity against Homo sapiens (human) MDA-MB-468 cells assessed as growth inhibition at 10 uM after 48 hr by coulter counter analysis; conditions: MDA-MB-468, 48 h, read-out: GI
[10] = tested on: T47D; test: Cytotoxicity against Homo sapiens (human) T47D cells assessed as growth inhibition at 10 uM after 48 hr by coulter counter analysis; conditions: read-out: GI
[11] = tested on: Hs-578T; test: Cytotoxicity against Homo sapiens (human) Hs578T cells assessed as growth inhibition at 10 uM after 48 hr by coulter counter analysis; conditions: read-out: GI
[12] = tested on: MDA-MB-231; test: Cytotoxicity against Homo sapiens (human) MDA-MB-231 cells assessed as growth inhibition at 10 uM after 48 hr by coulter counter analysis; conditions: MDA-MB-231, 48 h, read-out: GI
[13] = tested on: PC-3; test: Cytotoxicity against Homo sapiens (human) PC3 cells assessed as growth inhibition at 10 uM after 48 hr by coulter counter analysis; conditions: PC-3, 48 h, read-out: GI
[14] = tested on: UO-31; test: Cytotoxicity against Homo sapiens (human) UO31 cells assessed as growth inhibition at 10 uM after 48 hr by coulter counter analysis; conditions: UO-31, 48 h, read-out: GI
[15] = tested on: SN12C; test: Cytotoxicity against Homo sapiens (human) SN12C cells assessed as growth inhibition at 10 uM after 48 hr by coulter counter analysis; conditions: read-out: GI
[16] = tested on: RXF 393; test: Cytotoxicity against Homo sapiens (human) RXF393 cells assessed as growth inhibition at 10 uM after 48 hr by coulter counter analysis; conditions: RXF 393, 48 h, read-out: GI
[17] = tested on: CAKI-1; test: Cytotoxicity against Homo sapiens (human) Caki1 cells assessed as growth inhibition at 10 uM after 48 hr by coulter counter analysis; conditions: CAKI-1, 48 h, read-out: GI
[18] = tested on: 786-0; test: Cytotoxicity against Homo sapiens (human) 786-0 cells assessed as growth inhibition at 10 uM after 48 hr by coulter counter analysis; conditions: 786-0, 48 h, read-out: GI
[19] = tested on: OVCAR-8; test: Cytotoxicity against Homo sapiens (human) OVCAR8 cells assessed as growth inhibition at 10 uM after 48 hr by coulter counter analysis; conditions: OVCAR-8, 48 h, read-out: GI
[20] = tested on: SF-268; test: Cytotoxicity against Homo sapiens (human) SF268 cells assessed as growth inhibition at 10 uM after 48 hr by coulter counter analysis; conditions: SF-268, 48 h, read-out: GI
[21] = tested on: KM12; test: Cytotoxicity against Homo sapiens (human) KM12 cells assessed as growth inhibition at 10 uM after 48 hr by coulter counter analysis; conditions: KM12, 48 h, read-out: GI
[22] = tested on: SW-620; test: Cytotoxicity against Homo sapiens (human) SW620 cells assessed as growth inhibition at 10 uM after 48 hr by coulter counter analysis; conditions: SW-620, 48 h, read-out: GI
[23] = tested on: HT-29; test: Cytotoxicity against Homo sapiens (human) HT-29 cells assessed as growth inhibition at 10 uM after 48 hr by coulter counter analysis; conditions: HT-29, 48 h, read-out: GI
[24] = tested on: HCT-15; test: Cytotoxicity against Homo sapiens (human) HCT15 cells assessed as growth inhibition at 10 uM after 48 hr by coulter counter analysis; conditions: HCT-15, 48 h, read-out: GI
[25] = tested on: HCT-116; test: Cytotoxicity against Homo sapiens (human) HCT116 cells assessed as growth inhibition at 10 uM after 48 hr by coulter counter analysis; conditions: HCT-116, 48 h, read-out: GI
[26] = tested on: HCC 2998; test: Cytotoxicity against Homo sapiens (human) HCC2998 cells assessed as growth inhibition at 10 uM after 48 hr by coulter counter analysis; conditions: HCC 2998, 48 h, read-out: GI
[27] = tested on: COLO 205; test: Cytotoxicity against Homo sapiens (human) COLO205 cells assessed as growth inhibition at 10 uM after 48 hr by coulter counter analysis; conditions: COLO 205, 48 h, read-out: GI
[28] = tested on: NCI-H226; test: Cytotoxicity against Homo sapiens (human) NCI-H226 cells assessed as growth inhibition at 10 uM after 48 hr by coulter counter analysis; conditions: NCI-H226, 48 h, read-out: GI
[29] = tested on: EKVX; test: Cytotoxicity against Homo sapiens (human) EKVX cells assessed as growth inhibition at 10 uM after 48 hr by coulter counter analysis; conditions: read-out: GI
[30] = tested on: HOP-62; test: Cytotoxicity against Homo sapiens (human) HOP62 cells assessed as growth inhibition at 10 uM after 48 hr by coulter counter analysis; conditions: HOP-62, 48 h, read-out: GI
[31] = tested on: A549; test: Cytotoxicity against Homo sapiens (human) A549 cells assessed as growth inhibition at 10 uM after 48 hr by coulter counter analysis; conditions: A549, 48 h, read-out: GI
[32] = tested on: SR; test: Cytotoxicity against Homo sapiens (human) SR cells assessed as growth inhibition at 10 uM after 48 hr by coulter counter analysis; conditions: read-out: GI
[33] = tested on: MOLT-4; test: Cytotoxicity against Homo sapiens (human) MOLT4 cells assessed as growth inhibition at 10 uM after 48 hr by coulter counter analysis; conditions: MOLT-4, 48 h, read-out: GI
[34] = tested on: K562; test: Cytotoxicity against Homo sapiens (human) K562 cells assessed as growth inhibition at 10 uM after 48 hr by coulter counter analysis; conditions: K562, 48 h, read-out: GI

| SMILES | inhibition of growth at 10 µM [1] [%] | inhibition of growth at 10 µM [2] [%] | inhibition of growth at 10 µM [3] [%] | inhibition of growth at 10 µM [4] [%] | inhibition of growth at 10 µM [5] [%] | inhibition of growth at 10 µM [6] [%] | inhibition of growth at 10 µM [7] [%] | inhibition of growth at 10 µM [8] [%] | inhibition of growth at 10 µM [9] [%] | inhibition of growth at 10 µM [10] [%] | inhibition of growth at 10 µM [11] [%] | inhibition of growth at 10 µM [12] [%] | inhibition of growth at 10 µM [13] [%] | inhibition of growth at 10 µM [14] [%] | inhibition of growth at 10 µM [15] [%] | inhibition of growth at 10 µM [16] [%] | inhibition of growth at 10 µM [17] [%] | inhibition of growth at 10 µM [18] [%] | inhibition of growth at 10 µM [19] [%] | inhibition of growth at 10 µM [20] [%] | other results |
| --- | --- | --- | --- | --- | --- | --- | --- | --- | --- | --- | --- | --- | --- | --- | --- | --- | --- | --- | --- | --- | --- |
| COc1ccc(C2C3=C(CCCC3)Nc3nc(CC#N)[nH]c(=O)c32)cc1OC (configuration not stated) | < 10 | < 10 | < 10 | < 10 | < 10 | < 10 | < 10 | < 10 | < 10 | < 10 | < 10 | < 10 | < 10 | 26.9 | < 10 | < 10 | < 10 | < 10 | < 10 | < 10 | inhibition of growth at 10 µM [21]: < 10%; inhibition of growth at 10 µM [22]: < 10%; inhibition of growth at 10 µM [23]: < 10%; inhibition of growth at 10 µM [24]: < 10%; inhibition of growth at 10 µM [25]: < 10%; inhibition of growth at 10 µM [26]: < 10%; inhibition of growth at 10 µM [27]: < 10%; inhibition of growth at 10 µM [28]: 11.3%; inhibition of growth at 10 µM [29]: < 10%; inhibition of growth at 10 µM [30]: < 10%; inhibition of growth at 10 µM [31]: < 10%; inhibition of growth at 10 µM [32]: < 10%; inhibition of growth at 10 µM [33]: < 10%; inhibition of growth at 10 µM [34]: < 10% |
| CN(C)c1ccc(-c2nc3c(c(=O)[nH]2)C(c2ccc(Cl)cc2)C2=C(CCCC2)N3)cc1 (configuration not stated) | 10 | 12 | < 10 | < 10 | 11.1 | < 10 | < 10 | < 10 | < 10 | 17.6 | < 10 | 12 | < 10 | 47.4 | 14.6 | < 10 | < 10 | < 10 | < 10 | < 10 | inhibition of growth at 10 µM [21]: < 10%; inhibition of growth at 10 µM [22]: < 10%; inhibition of growth at 10 µM [23]: < 10%; inhibition of growth at 10 µM [24]: < 10%; inhibition of growth at 10 µM [25]: < 10%; inhibition of growth at 10 µM [26]: < 10%; inhibition of growth at 10 µM [27]: 10.2%; inhibition of growth at 10 µM [28]: < 10%; inhibition of growth at 10 µM [29]: < 10%; inhibition of growth at 10 µM [30]: 12.8%; inhibition of growth at 10 µM [31]: < 10%; inhibition of growth at 10 µM [32]: < 10%; inhibition of growth at 10 µM [33]: < 10%; inhibition of growth at 10 µM [34]: < 10% |
| COc1ccc(C2C3=C(CCCC3)Nc3nn[nH]c(=O)c32)cc1OC (configuration not stated) | < 10 | 28.3 | 10.7 | < 10 | < 10 | < 10 | < 10 | 10.9 | 21.1 | 21.1 | < 10 | < 10 | 13.4 | 48.6 | 10.8 | 14.4 | 23.4 | < 10 | < 10 | < 10 | inhibition of growth at 10 µM [21]: < 10%; inhibition of growth at 10 µM [22]: < 10%; inhibition of growth at 10 µM [23]: < 10%; inhibition of growth at 10 µM [24]: < 10%; inhibition of growth at 10 µM [25]: < 10%; inhibition of growth at 10 µM [26]: < 10%; inhibition of growth at 10 µM [27]: 15.9%; inhibition of growth at 10 µM [28]: 15.9%; inhibition of growth at 10 µM [29]: < 10%; inhibition of growth at 10 µM [30]: 15.7%; inhibition of growth at 10 µM [31]: < 10%; inhibition of growth at 10 µM [32]: < 10%; inhibition of growth at 10 µM [33]: < 10%; inhibition of growth at 10 µM [34]: < 10% |
